What was measured:
ARO = assay: Antiproliferative activity against human RET deficient ARO cells after 72 hrs by [3H]thymidine incorporation assay
cells = conditions: Homo sapiens, LS174T
Description: Antiproliferative activity against human RET deficient LS 174T cells after 72 hrs by [3H]thymidine incorporation assay

TPC1 = assay: Antiproliferative activity against human TPC1 cells expressing RET/PCT1 after 72 hrs by [3H]thymidine incorporation assay
[1] = target: Tyrosine-protein kinase ABL1 (Homo sapiens, UniProt P00519)
Chain of Tyrosine-protein kinase ABL1 (P00519 whole entry): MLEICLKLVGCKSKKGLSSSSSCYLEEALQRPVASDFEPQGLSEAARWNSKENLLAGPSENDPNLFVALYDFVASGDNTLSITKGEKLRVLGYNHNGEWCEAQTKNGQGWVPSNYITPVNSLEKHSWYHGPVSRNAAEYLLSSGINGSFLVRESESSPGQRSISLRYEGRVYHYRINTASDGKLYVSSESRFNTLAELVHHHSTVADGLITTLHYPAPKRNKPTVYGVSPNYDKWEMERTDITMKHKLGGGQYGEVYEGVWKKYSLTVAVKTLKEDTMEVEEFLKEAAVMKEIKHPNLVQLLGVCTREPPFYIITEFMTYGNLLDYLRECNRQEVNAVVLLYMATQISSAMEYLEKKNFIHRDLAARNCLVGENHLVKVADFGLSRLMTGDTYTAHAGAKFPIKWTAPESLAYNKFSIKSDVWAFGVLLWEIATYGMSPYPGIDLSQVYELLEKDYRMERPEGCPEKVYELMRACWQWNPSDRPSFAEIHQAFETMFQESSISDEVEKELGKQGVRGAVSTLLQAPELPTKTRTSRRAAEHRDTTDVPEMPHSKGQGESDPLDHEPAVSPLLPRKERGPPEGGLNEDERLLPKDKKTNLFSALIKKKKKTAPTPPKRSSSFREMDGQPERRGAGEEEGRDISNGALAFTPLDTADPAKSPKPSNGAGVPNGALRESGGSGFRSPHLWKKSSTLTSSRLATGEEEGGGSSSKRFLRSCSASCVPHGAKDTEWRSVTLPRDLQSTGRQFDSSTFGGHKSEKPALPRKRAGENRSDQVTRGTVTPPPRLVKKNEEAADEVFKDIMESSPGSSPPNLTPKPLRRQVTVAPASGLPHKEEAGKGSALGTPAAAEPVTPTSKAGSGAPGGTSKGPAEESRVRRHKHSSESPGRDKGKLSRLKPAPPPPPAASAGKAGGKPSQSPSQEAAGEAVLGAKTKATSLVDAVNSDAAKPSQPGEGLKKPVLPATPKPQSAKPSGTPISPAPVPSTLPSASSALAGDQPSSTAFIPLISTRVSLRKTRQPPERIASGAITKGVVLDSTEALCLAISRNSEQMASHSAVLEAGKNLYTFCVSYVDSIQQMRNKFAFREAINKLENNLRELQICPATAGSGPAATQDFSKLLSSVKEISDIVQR
Description: Inhibition of human recombinant histidine-tagged ABL (230-517) expressed in Sf9 cells by ELISA

| SMILES | IC50 (cells) | IC50 [1] | IC50 (ARO) | IC50 (TPC1) |
| --- | --- | --- | --- | --- |
| N#Cc1c(SCc2ccccc2)nc2c(c1-c1cccs1)CCCC2 | 6.2 µM | 72 µM | 8.5 µM | 17 µM |
| COc1cc2/c(=N/c3ccc(Br)cc3F)nc[nH]c2cc1OCC1CCN(C)CC1 [VANDETANIB] | – | – | – | 0.116 µM |
| N#Cc1c(N)nc(SCC(=O)c2ccccc2)c(C#N)c1-c1ccsc1 | > 300 µM | 0.29 µM | > 300 µM | > 300 µM |

Further lines, with some results ahead:

| IC50 (cells) | IC50 [1] | SMILES | IC50 (ARO) | IC50 (TPC1) |
| --- | --- | --- | --- | --- |
| > 300 µM | > 150 µM | N#Cc1c(SCC(=O)c2ccccc2)nc2c(c1-c1ccsc1)CCCC2 | – | > 300 µM |
| 92 µM | 60 µM | N#Cc1c(N)nc(SCC(=O)c2ccc(Cl)cc2)c(C#N)c1-c1ccsc1 | 159 µM | 28 µM |
| > 300 µM | 74 µM | N#Cc1c(SCc2ccc(F)cc2)nc2c(c1-c1cccs1)CCCC2 | > 300 µM | 101 µM |
